Reference: article PMC3537142 (EMBO Reports, 2012)
Positions count from the first letter of the chain named.

How the values were obtained:
[1] = target: T1, 5HTBP construct A1 B2 D1W (Aplysia californica, UniProt Q8WSF8, K160T/S111E/V159L/Y72W); experiment: SPR biosensor assay; details: construct A1B2D1W; stated for both [3H]granisetron binding and SPR
T1 sequence (Q8WSF8 20-236 Y72W/S111E/V159L/K160T): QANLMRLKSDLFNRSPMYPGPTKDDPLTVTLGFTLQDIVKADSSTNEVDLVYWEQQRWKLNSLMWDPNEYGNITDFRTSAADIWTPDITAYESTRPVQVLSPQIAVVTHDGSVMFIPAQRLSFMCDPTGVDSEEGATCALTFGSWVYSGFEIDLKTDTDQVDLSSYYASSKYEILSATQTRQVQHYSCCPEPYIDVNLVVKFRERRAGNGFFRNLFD

AChBPs = details: ref [4], [5]; cited from earlier work
[2] = target: T2, 5HTBP construct D2 (Y53W, Q55R) (Aplysia californica, UniProt Q8WSF8, Q74R/Y72W); experiment: Competition binding with [3H]granisetron; details: read-out: Granisetron Ki, [3H]granisetron binding
T2 sequence (Q8WSF8 20-236 Y72W/Q74R): T1 sequence (Q8WSF8 20-236 Y72W/S111E/V159L/K160T) with Q55R, E92S, L140V, T141K

[3] = target: T3, 5HTBP construct A1 (S92E) (Aplysia californica, UniProt Q8WSF8, S111E); experiment: Competition binding with [3H]granisetron; details: read-out: Ki, [3H]granisetron binding; single mutant construct A1 (S92E)
T3 sequence (Q8WSF8 20-236 S111E): T1 sequence (Q8WSF8 20-236 Y72W/S111E/V159L/K160T) with W53Y, L140V, T141K

[4] = target: T4, construct A2NE (Y91N, S92E) (Aplysia californica, UniProt Q8WSF8, S111E/Y110N); experiment: [3H]granisetron binding to single-loop construct
T4 sequence (Q8WSF8 20-236 Y110N/S111E): T1 sequence (Q8WSF8 20-236 Y72W/S111E/V159L/K160T) with W53Y, Y91N, L140V, T141K

construct C5 = target: T5, construct C5 (Aplysia californica, UniProt Q8WSF8, C207M/C208E/E210S/P209S/P211N); experiment: [3H]granisetron binding to single-loop construct
T5 sequence (Q8WSF8 20-236 C207M/C208E/P209S/E210S/P211N): T1 sequence (Q8WSF8 20-236 Y72W/S111E/V159L/K160T) with W53Y, E92S, L140V, T141K, C188M, C189E, P190S, E191S, P192N

construct C6 = target: T6, construct C6 (Aplysia californica, UniProt Q8WSF8, C207E/C208S/E210N/INS206M/P209S/P211Y); experiment: [3H]granisetron binding to single-loop construct
T6 sequence (Q8WSF8 with tags, fused parts or gaps INS206M/C207E/C208S/P209S/E210N/P211Y): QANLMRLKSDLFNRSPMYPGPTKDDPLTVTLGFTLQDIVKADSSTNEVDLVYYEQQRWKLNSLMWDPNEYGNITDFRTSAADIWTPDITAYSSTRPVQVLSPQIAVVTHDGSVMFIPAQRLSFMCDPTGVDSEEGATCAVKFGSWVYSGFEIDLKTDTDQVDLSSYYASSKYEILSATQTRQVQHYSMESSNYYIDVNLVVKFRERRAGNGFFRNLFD

construct E3 = target: T7, construct E3 (Aplysia californica, UniProt Q8WSF8, I123Y/I135Y/V125Y); experiment: [3H]granisetron binding to single-loop construct
T7 sequence (Q8WSF8 20-236 I123Y/V125Y/I135Y): T1 sequence (Q8WSF8 20-236 Y72W/S111E/V159L/K160T) with W53Y, E92S, I104Y, V106Y, I116Y, L140V, T141K

construct E1 = target: T8, construct E1 (Aplysia californica, UniProt Q8WSF8, I135Y); experiment: [3H]granisetron binding to single-loop construct
T8 sequence (Q8WSF8 20-236 I135Y): T1 sequence (Q8WSF8 20-236 Y72W/S111E/V159L/K160T) with W53Y, E92S, I116Y, L140V, T141K

5HTBP construct A1 B2 D2 = target: T9, 5HTBP construct A1 B2 D2 (Aplysia californica, UniProt Q8WSF8, K160T/Q74R/S111E/V159L/Y72W); experiment: Competition binding with [3H]granisetron; details: NB = no binding
T9 sequence (Q8WSF8 20-236 Y72W/Q74R/S111E/V159L/K160T): T1 sequence (Q8WSF8 20-236 Y72W/S111E/V159L/K160T) with Q55R

| Compound | increase in the affinity compared with wild-type Ac-AChBP [1] [fold] | lower affinity than acetylcholine (AChBPs) [fold] | Ki [2] [nM] | Ki [3] [nM] | [3H]granisetron binding [4] | [3H]granisetron binding (construct C5) | [3H]granisetron binding (construct C6) | [3H]granisetron binding (construct E3) | [3H]granisetron binding (construct E1) | Granisetron Ki, [3H]granisetron binding (5HTBP construct A1 B2 D2) |
| --- | --- | --- | --- | --- | --- | --- | --- | --- | --- | --- |
| NCCc1c[nH]c2ccc(O)cc12 [Serotonin, 5-hydroxytryptamine] | ~40 | ~60 | – | – | – | – | – | – | – | – |
| CN1C2CCCC1CC(NC(=O)c1nn(C)c3ccccc13)C2 (stereo not shown) [[^3H]granisetron, [3H]BRL-43694] | – | – | 454 ± 71 | 270 ± 51 | failed to bind | did not show detectable [^3H]granisetron binding | did not show detectable [^3H]granisetron binding | no detectable [^3H]granisetron binding | no detectable [^3H]granisetron binding | no longer bound |
